pIC50: −log10 of the molar value.
These compounds were tested against human A2A receptor (A2AR) (Homo sapiens, UniProt P29274) (assay: Luciferase reporter assay (HEK293-A2AR-luc2p/CRE/Hygro cells, 3 nM CGS21680)). Settings: 3 nM CGS21680, 5 h incubation.
Sequence of human A2A receptor (A2AR) (P29274 whole entry): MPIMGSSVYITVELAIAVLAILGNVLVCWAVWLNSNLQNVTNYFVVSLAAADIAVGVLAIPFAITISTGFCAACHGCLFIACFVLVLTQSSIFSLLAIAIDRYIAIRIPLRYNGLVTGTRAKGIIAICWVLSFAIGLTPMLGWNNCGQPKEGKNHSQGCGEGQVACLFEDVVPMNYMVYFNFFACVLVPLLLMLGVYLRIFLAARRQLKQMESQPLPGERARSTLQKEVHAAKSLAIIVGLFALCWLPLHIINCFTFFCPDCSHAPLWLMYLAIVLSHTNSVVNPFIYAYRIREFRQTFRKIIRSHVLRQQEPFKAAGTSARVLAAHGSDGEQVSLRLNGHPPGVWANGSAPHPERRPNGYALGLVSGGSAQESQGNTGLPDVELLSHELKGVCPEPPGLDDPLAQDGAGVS
Assay type: cell-based
In short: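 Antagonist (0.1–10000 nM) and 3 nM CGS21680 were co-added for 5 h to stable HEK293-A2AR-luc2p/CRE cells, 18 h after seeding in 1% FBS medium containing adenosine deaminase. Luminescence was normalized to agonist alone (100%), and IC50 came from the dose–inhibition curve.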
In the case of `CCC(C(=O)N1CCN(c2ccc(OCCOCCOC)cc2)CC1)n1cc2c(nc(N)n3nc(-c4ccco4)nc23)n1` (stereo not drawn) [Compound C8, 2-(5-amino-2-(furan-2-yl)-8H-pyrazolo[4,3-e][1,2,4]triazolo[1,5-c]pyrimidin-8-yl)-1-(4-(4-(2-(2-methoxyethoxy)ethoxy)phenyl)piperazin-1-yl)butan-1-one], the pIC50 was 6.62. `COCCOCCOc1ccc(N2CCN(C(=O)C(C)n3cc4c(nc(N)n5nc(-c6ccco6)nc45)n3)CC2)cc1` (stereo not drawn) [Compound C9, 2-(5-amino-2-(furan-2-yl)-8H-pyrazolo[4,3-e][1,2,4]triazolo[1,5-c]pyrimidin-8-yl)-1-(4-(4-(2-(2-methoxyethoxy)ethoxy)phenyl)piperazin-1-yl)propan-1-one] gave a pIC50 of 7.40. `CCCCC(C(=O)N1CCN(c2ccc(OCCOC)cc2)CC1)n1cc2c(nc(N)n3nc(-c4ccco4)nc23)n1` (stereo not drawn) [Compound C10, 2-(5-amino-2-(furan-2-yl)-8H-pyrazolo[4,3-e][1,2,4]triazolo[1,5-c]pyrimidin-8-yl)-1-(4-(4-(2-methoxyethoxy)phenyl)piperazin-1-yl)hexan-1-one] gave a pIC50 of 6.90. Compound `CCCCC(C(=O)N1CCN(c2ccc(OCCOCCOC)cc2)CC1)n1cc2c(nc(N)n3nc(-c4ccco4)nc23)n1` (stereo not drawn) [Compound C11, 2-(5-amino-2-(furan-2-yl)-8H-pyrazolo[4,3-e][1,2,4]triazolo[1,5-c]pyrimidin-8-yl)-1-(4-(4-(2-(2-methoxyethoxy)ethoxy)phenyl)piperazin-1-yl)hexan-1-one] has a pIC50 of 6.93. `COCCOCCOc1ccc(N2CCN(C(=O)C(C(C)C)n3cc4c(nc(N)n5nc(-c6ccco6)nc45)n3)CC2)cc1` (stereo not drawn) [Compound C12, 2-(5-amino-2-(furan-2-yl)-8H-pyrazolo[4,3-e][1,2,4]triazolo[1,5-c]pyrimidin-8-yl)-1-(4-(4-(2-(2-methoxyethoxy)ethoxy)phenyl)piperazin-1-yl)-3-methylbutan-1-one] was tested, and the pIC50 was 6.47. Compound `CC(C(=O)N1CCN(c2ccc(OCCN)cc2)CC1)n1cc2c(nc(N)n3nc(-c4ccco4)nc23)n1` (stereo not drawn) [Compound C13, 2-(5-amino-2-(furan-2-yl)-8H-pyrazolo[4,3-e][1,2,4]triazolo[1,5-c]pyrimidin-8-yl)-1-(4-(4-(2-aminoethoxy)phenyl)piperazin-1-yl)propan-1-one] has a pIC50 of 7.90. `COCCOc1ccc(N2CCN(C(=O)C(c3ccccc3)n3cc4c(nc(N)n5nc(-c6ccco6)nc45)n3)CC2)cc1` (stereo not drawn) [Compound C14, 2-(5-amino-2-(furan-2-yl)-8H-pyrazolo[4,3-e][1,2,4]triazolo[1,5-c]pyrimidin-8-yl)-1-(4-(4-(2-methoxyethoxy)phenyl)piperazin-1-yl)-2-phenylethan-1-one] showed a pIC50 of 8.02. `COCCOCCOc1ccc(N2CCN(C(=O)C(c3ccccc3)n3cc4c(nc(N)n5nc(-c6ccco6)nc45)n3)CC2)cc1` (stereo not drawn) [Compound C15, 2-(5-amino-2-(furan-2-yl)-8H-pyrazolo[4,3-e][1,2,4]triazolo[1,5-c]pyrimidin-8-yl)-1-(4-(4-(2-(2-methoxyethoxy)ethoxy)phenyl)piperazin-1-yl)-2-phenylethan-1-one] showed a pIC50 of 7.77. `COCCOc1ccc(N2CCN(C(=O)C(C3CC3)n3cc4c(nc(N)n5nc(-c6ccco6)nc45)n3)CC2)cc1` (stereo not drawn) [Compound C16, 2-(5-amino-2-(furan-2-yl)-8H-pyrazolo[4,3-e][1,2,4]triazolo[1,5-c]pyrimidin-8-yl)-2-cyclopropyl-1-(4-(4-(2-methoxyethoxy)phenyl)piperazin-1-yl)ethan-1-one] was tested, and the pIC50 was 8.31. With `COCCOc1ccc(N2CCN(C(=O)C(CC(C)C)n3cc4c(nc(N)n5nc(-c6ccco6)nc45)n3)CC2)cc1` (stereo not drawn) [Compound C17, 2-(5-amino-2-(furan-2-yl)-8H-pyrazolo[4,3-e][1,2,4]triazolo[1,5-c]pyrimidin-8-yl)-1-(4-(4-(2-methoxyethoxy)phenyl)piperazin-1-yl)-4-methylpentan-1-one] the pIC50 was 7.05. `COCCOCCOc1ccc(N2CCN(C(=O)C(CC(C)C)n3cc4c(nc(N)n5nc(-c6ccco6)nc45)n3)CC2)cc1` (stereo not drawn) [Compound C18, 2-(5-amino-2-(furan-2-yl)-8H-pyrazolo[4,3-e][1,2,4]triazolo[1,5-c]pyrimidin-8-yl)-1-(4-(4-(2-(2-methoxyethoxy)ethoxy)phenyl)piperazin-1-yl)-4-methylpentan-1-one] gave a pIC50 of 7.04. With `CC(C(=O)N1CCN(c2ccc(OCCN(C)C)cc2)CC1)n1cc2c(nc(N)n3nc(-c4ccco4)nc23)n1` (stereo not drawn) [Compound C19, 2-(5-amino-2-(furan-2-yl)-8H-pyrazolo[4,3-e][1,2,4]triazolo[1,5-c]pyrimidin-8-yl)-1-(4-(4-(2-(dimethylamino)ethoxy)phenyl)piperazin-1-yl)propan-1-one] the pIC50 was 7.33. In the case of `COCCOc1ccc(N2CCN(C(=O)C(Cc3ccccc3)n3cc4c(nc(N)n5nc(-c6ccco6)nc45)n3)CC2)cc1` (stereo not drawn) [Compound C20, 2-(5-amino-2-(furan-2-yl)-8H-pyrazolo[4,3-e][1,2,4]triazolo[1,5-c]pyrimidin-8-yl)-1-(4-(4-(2-methoxyethoxy)phenyl)piperazin-1-yl)-3-phenylpropan-1-one], the pIC50 was 5.69. With `CCCC(C(=O)N1CCN(c2ccc(F)cc2F)CC1)n1cc2c(nc(N)n3nc(-c4ccco4)nc23)n1` (stereo not drawn) [Compound C21, 2-(5-amino-2-(furan-2-yl)-8H-pyrazolo[4,3-e][1,2,4]triazolo[1,5-c]pyrimidin-8-yl)-1-(4-(2,4-difluorophenyl)piperazin-1-yl)pentan-1-one] the pIC50 was 7.00. Work on `COCCOCCOc1ccc(N2CCN(C(=O)C(C3CC3)n3cc4c(nc(N)n5nc(-c6ccco6)nc45)n3)CC2)cc1` (stereo not drawn) [Compound C22, 2-(5-amino-2-(furan-2-yl)-8H-pyrazolo[4,3-e][1,2,4]triazolo[1,5-c]pyrimidin-8-yl)-2-cyclopropyl-1-(4-(4-(2-(2-methoxyethoxy)ethoxy)phenyl)piperazin-1-yl)ethan-1-one] yielded a pIC50 of 7.89. Compound `CC(C)CC(C(=O)N1CCN(c2ccc(F)cc2F)CC1)n1cc2c(nc(N)n3nc(-c4ccco4)nc23)n1` (stereo not drawn) [Compound C23, 2-(5-amino-2-(furan-2-yl)-8H-pyrazolo[4,3-e][1,2,4]triazolo[1,5-c]pyrimidin-8-yl)-1-(4-(2,4-difluorophenyl)piperazin-1-yl)-4-methylpentan-1-one] has a pIC50 of 7.16. Compound `CNCCOc1ccc(N2CCN(C(=O)C(C)n3cc4c(nc(N)n5nc(-c6ccco6)nc45)n3)CC2)cc1` (stereo not drawn) [Compound C24, 2-(5-amino-2-(furan-2-yl)-8H-pyrazolo[4,3-e][1,2,4]triazolo[1,5-c]pyrimidin-8-yl)-1-(4-(4-(2-(methylamino)ethoxy)phenyl)piperazin-1-yl)propan-1-one] has a pIC50 of 7.45. In the case of `COCCOc1ccc(N2CCN(C(=O)C(C)(c3ccccc3)n3cc4c(nc(N)n5nc(-c6ccco6)nc45)n3)CC2)cc1` (stereo not drawn) [Compound C25, 2-(5-amino-2-(furan-2-yl)-8H-pyrazolo[4,3-e][1,2,4]triazolo[1,5-c]pyrimidin-8-yl)-1-(4-(4-(2-methoxyethoxy)phenyl)piperazin-1-yl)-2-phenylpropan-1-one], the pIC50 was 7.66.
